Measurements as given in patent US20150065499A1, “3-AMINOTHIENO[3,2-c]QUINOLINE DERIVATIVES, METHODS OF PREPARATION AND USES” (TEMPLE UNIVERSITY - OF THE COMMONWEALTH SYSTEM OF HIGHER …, priority 2012, published 2015).
Where a name gives a salt, the structure may show the parent alone.

Columns and labels:
DU145 (prostate cancer) = assay: Cancer cell assay, DU145 tumor cells, viable cells after 96 hours; format: cell-based; conditions: Homo sapiens, DU-145, 96 hours after treatment, called IC50
Procedure: (§1) The effect of the compounds of the invention on tumor cells was determined by the assay described by Latham et al., Oncogene 12:827-837 (1996). Tumor cells K562 (chronic myelogenous leukemia; leukemia cell line +ve for Bcr-Abl) or DU145 (prostate cancer) were plated in 12-well dishes at a cell density of 2.5×10^4 cells well. The plated cells were treated 24 hours later with a compound of the invention dissolved in DMSO at multiple concentrations ranging from 0.01 μM to 100 μM. The plates were examined 96 hours later under an inverted microscope, Olympus CK-2 using a 10× objective, and compound activity was noted by physical observation. When necessary, the total number of viable cells was determined by trypsinizing the wells and counting the number of viable cells, as determined by trypan blue exclusion, using a hemacytometer.

[1] = test system: K562 (chronic myelogenous leukemia; leukemia cell line +ve for Bcr-Abl); assay: Cancer cell assay, K562 tumor cells, viable cells after 96 hours; format: cell-based; conditions: 96 hours after treatment, called IC50
Procedure: as §1

| Molecule | IC50 (DU145 (prostate cancer)) [µM] | IC50 ([1]; Homo sapiens) [µM] | melting point [°C] | IC50 [1] [µM] |
| --- | --- | --- | --- | --- |
| COc1cc2ncc3c(N)c(C(=O)c4ccc(F)cc4)sc3c2cc1OC [Example 3, (3-Amino-7,8-dimethoxythieno[3,2-c]quinolin-2-yl)(4-fluorophenyl)methanone] | > 10 | > 10 | 286 to 288 |  |
| COc1cc2ncc3c(N)c(C(C)=O)sc3c2cc1OC [Example 6, 1-(3-Amino-7,8-dimethoxythieno[3,2-c]quinolin-2-yl)ethanone] | 1 to 10 | 0.5 to 1 | 260 to 263 |  |
| N#Cc1sc2c(cnc3ccc(F)cc32)c1N [Example 36, 3-Amino-8-fluorothieno[3,2-c]quinoline-2-carbonitrile] | 75 | 75 | > 300 |  |
| COC(=O)c1sc2c(cnc3cc(OC)c(OC)cc32)c1NC(=O)C(=O)N1CCN(C)CC1 [Example 25, Methyl 7,8-dimethoxy-3-[2-(4-methylpiperazin-1-yl)-2-oxoacetamido]thieno[3,2-c]quinoline-2-carboxylate] | 1 to 10 | 1 to 10 |  |  |
| COC(=O)c1sc2c(cnc3cc(OC)c(OC)cc32)c1NC(=O)c1ccccc1F [Example 17, Methyl 3-(2-fluorobenzamido)-7,8-dimethoxythieno[3,2-c]quinoline-2-carboxylate] | 0.5 to 1 | 0.1 to 0.25 | 237 to 240 |  |
| COC(=O)c1sc2c(cnc3cc(OC(=O)N4CCN(C)CC4)c(OC)cc32)c1N [Example 13, Methyl 3-amino-8-methoxy-7-[(4-methylpiperazine-1-carbonyl)oxy]thieno[3,2-c]quinoline-2-carboxylate] | 10 to 25 | 10 to 25 | 147 to 150 |  |
| COC(=O)c1sc2c(cnc3cc(OC)c(OC)cc32)c1NC(=O)C(F)(F)F [Example 23, Methyl 7,8-dimethoxy-3-(2,2,2-trifluoroacetamido)thieno[3,2-c]quinoline-2-carboxylate] | 0.75 | 0.2 | 224 to 230 |  |
| COC(=O)c1sc2c(cnc3cc(OC)c(OC)cc32)c1NC(=O)c1ccccc1[N+](=O)[O-] [Example 20, Methyl 7,8-dimethoxy-3-(2-nitrobenzamido)thieno[3,2-c]quinoline-2-carboxylate] | 25 | 3 | 178 to 181 |  |
| COC(=O)c1sc2c(c[n+](C)c3cc(OC)c(OC)cc23)c1N [Example 30, 3-amino-7,8-dimethoxy-2-(methoxycarbonyl)-5-methylthieno[3,2-c]quinolin-5-ium iodide] | > 10 | 5 to 10 |  |  |
| COC(=O)c1sc2c(cnc3cc(O)c(OC)cc32)c1N [Example 9, Methyl 3-amino-7-hydroxy-8-methoxythieno[3,2-c]quinoline-2-carboxylate] | > 10 | 1 to 10 | 244 to 246 |  |
| COC(=O)c1sc2c(cnc3cc(OC)c(OC)cc32)c1NC(=O)c1ccccc1 [Example 19, Methyl 3-benzamido-7,8-dimethoxythieno[3,2-c]quinoline-2-carboxylate] | 0.25 to 0.5 | 0.1 to 0.25 | 205 to 208 |  |
| COC(=O)c1sc2c(cnc3cc(OC)c(OC)cc32)c1NC(=O)c1ccc(Cl)c([N+](=O)[O-])c1 [Example 22, Methyl 3-(4-chloro-3-nitrobenzamido)-7,8-dimethoxythieno[3,2-c]quinoline-2-carboxylate] | 0.5 to 1 | 0.1 to 0.5 | 260 to 262 |  |
| CCOC(=O)c1sc2c(cnc3cc(OC)c(OC)cc32)c1N [Example 2, Ethyl 3-amino-7,8-dimethoxythieno[3,2-c]quinolone-2-carboxylate] | > 1 | 0.5 to 1 | 215 to 218 |  |

More lines, now with the values ahead:

| IC50 (DU145 (prostate cancer)) [µM] | IC50 ([1]; Homo sapiens) [µM] | melting point [°C] | IC50 [1] [µM] | Molecule |
| --- | --- | --- | --- | --- |
| 10 to 25 | 10 to 25 | 158 to 160 |  | COC(=O)c1sc2c(cnc3cc(OCCN4CCOCC4)c(OC)cc32)c1N [Example 14, Methyl 3-amino-8-methoxy-7-(2-morpholinoethoxy)thieno[3,2-c]quinoline-2-carboxylate] |
| 10 to 25 | 1 to 10 | 240 to 246 |  | COC(=O)c1sc2c(cnc3cc(OC)c(OC)cc32)c1NC(=O)C(=O)Nc1ccc(N2CCN(C)CC2)cc1 [Example 28, Methyl 7,8-dimethoxy-3-(2-{[4-(4-methylpiperazin-1-yl)phenyl]amino}-2-oxoacetamido)thieno[3,2-c]quinoline-2-carboxylate] |
| 1 to 10 | 1 to 10 | 245 to 248 |  | COC(=O)c1sc2c(cnc3cc(OC)c(OC)cc32)c1NC(=O)C(=O)N1CCN(c2ccncc2)CC1 [Example 27, Methyl 7,8-dimethoxy-3-{2-oxo-2-[4-(pyridin-4-yl)piperazin-1-yl]acetamido}thieno[3,2-c]quinoline-2-carboxylate] |
| 75 | 75 | > 320 |  | Nc1c(C(=O)c2ccc(F)cc2)sc2c1cnc1cc(F)c(F)cc12 [Example 39, (3-Amino-7,8-difluorothieno[3,2-c]quinolin-2-yl)(4-fluorophenyl)methanone] |
| 0.6 | 0.15 | 260 to 262 |  | COC(=O)c1sc2c(cnc3cc(OC)c(OC)cc32)c1N [Example 1, Methyl 3-amino-7,8-dimethoxythieno[3,2-c]quinolone-2-carboxylate] |
| 10 to 25 | 1 to 10 | 314 to 316 |  | COc1cc2ncc3c(N)c(C#N)sc3c2cc1OC [Example 8, 3-Amino-7,8-dimethoxythieno[3,2-c]quinoline-2-carbonitrile] |
| 1 to 10 | 1 to 10 | 117 to 120 |  | COC(=O)c1sc2c(cnc3cc(OCCCN4CCOCC4)c(OC)cc32)c1N [Example 11, Methyl 3-amino-8-methoxy-7-(3-morpholinopropoxy)thieno[3,2-c]quinoline-2-carboxylate] |
| 10 to 25 | 10 to 25 | 173 to 175 |  | COC(=O)c1sc2c(cnc3cc(OC)c(OC)cc32)c1/N=C/N(C)C [Example 32, (E)-methyl 3-(((dimethylamino)methylene)amino)-7,8-dimethoxythieno[3,2-c]quinoline-2-carboxylate] |
| 25 | 25 | 300 to 301 |  | N#Cc1sc2c(cnc3cc(F)c(F)cc32)c1N [Example 38, 3-Amino-7,8-difluorothieno[3,2-c]quinoline-2-carbonitrile] |
| > 10 | > 10 | 272 to 274 |  | COC(=O)c1sc2c(cnc3cc(OC)c(OCc4ccccc4)cc32)c1N [Example 7, Methyl 3-amino-8-benzyloxy-7-methoxythieno[3,2-c]quinoline-2-carboxylate] |
| 10 | 10 | 270 to 272 |  | COC(=O)c1sc2c(cnc3ccc(F)cc32)c1N [Example 34, Methyl 3-amino-8-fluorothieno[3,2-c]quinoline-2-carboxylate] |
| 10 | 10 | 298 to 300 |  | COC(=O)c1sc2c(cnc3cc(F)c(F)cc32)c1N [Example 35, Methyl 3-amino-7,8-difluorothieno[3,2-c]quinoline-2-carboxylate] |
| 10 | 0.6 | 256 to 258 |  | COc1ccc(C(=O)c2sc3c(cnc4ccc(F)cc43)c2N)cc1 [Example 41, (3-Amino-8-fluorothieno[3,2-c]quinolin-2-yl)(4-methoxyphenyl)methanone] |
| > 10 | > 10 | 221 to 223 |  | COC(=O)c1sc2c(cnc3cc(OCc4ccccc4)c(OC)cc32)c1N [Example 4, Methyl 3-amino-7-benzyloxy-8-methoxythieno[3,2-c]quinolone-2-carboxylate] |
| < 1 | < 1 | 255 to 258 |  | COC(=O)c1sc2c(cnc3cc(OC)c(OC)cc32)c1NC(=O)c1ccc(OC)cc1 [Example 16, Methyl 7,8-dimethoxy-3-(4-methoxybenzamido)thieno[3,2-c]quinoline-2-carboxylate] |
| 50 to 100 | 25 to 50 | 252 to 255 |  | COc1cc2ncc3c(N)c(-c4nnn[nH]4)sc3c2cc1OC [Example 33, 7,8-dimethoxy-2-(1H-tetrazol-5-yl)thieno[3,2-e]quinolin-3-amine] |
| > 100 | > 100 | 277 to 280 |  | COC(=O)c1sc2c(cnc3cc(OC)c(O)cc32)c1N [Example 10, Methyl 3-amino-8-hydroxy-7-methoxythieno[3,2-c]quinoline-2-carboxylate] |
|  |  | 249 to 251 |  | COC(=O)c1sc2c(c[n+](C)c3cc(OC)c(OC)cc23)c1N (as salt: iodide) [Example 30, 3-amino-7,8-dimethoxy-2-(methoxycarbonyl)-5-methylthieno[3,2-c]quinolin-5-ium iodide] |
|  |  |  | < 1 | Methyl 7,8-dimethoxy-3-(2-aminobenzamido)thieno[3,2-e]quinoline-2-carboxylate [Example 21] |
| > 100 | 50 to 100 |  |  | COC(=O)C[n+]1cc2c(N)c(C(=O)OC)sc2c2cc(OC)c(OC)cc21 [Example 31, 3-amino-7,8-dimethoxy-5-(2-methoxy-2-oxoethyl)-2-(methoxycarbonyl)thieno[3,2-c]quinolin-5-ium bromide] |
